Measurements: US20230148152A1, “METHOD OF SYNTHESIZING SINGLE-STRANDED NUCLEOTIDE SEQUENCE, BLOCKED NUCLEOSIDE TRIPHOSPHATES AND RELATED METHODS” (Agency for Science, Technology and Research, priority 2019, published 2023)

What was measured:
Type in all cases: biochemical
[1] = tested on: engineered terminal deoxynucleotidyl transferase (TdT); assay: Tailing experiment design, screening of RT-dTTPs with eTdT as enzyme; details: for incorporation into the original FAM-20-mer (21-mer product): eTdT as enzyme, PAGE, FIG. 8A and FIG. 8B; for incorporation yield, eTdT compared with rTdT: catalytic activity of rTdT compared with eTdT, FIG. 10
Excerpt: (§1) In this experimental design (FIG. 5), single-stranded deoxyoligonucleotides (20 nt) 102 with FAM tagged on 5′ end reacts with RT-dNTP 104 using TdT as the catalyst, and produce 21-mer (102a and 102b).
(§2) As the incorporation is not 100%, the unreacted FAM tagged oligo will further react with natural deoxynucleotidyl triphosphates (dATP) 106, and produces tailing products 102c. The 21-mer (102a and 102b) and tailing products (102c) can be separated by polyacrylamide gel electrophoresis.
(§3) 1. Set up the following reactions
(§4) 2. Incubate the solution at 37° C. for 60 min
(§5) 3. Purification • Desalt with Zymo column Oligo Clean & Concentrator D4061 (following manufacturer's protocol) to obtain 15 μL aqueous solution and concentrate on speedvac to dry
(§6) 4. Set up the following reactions
(§7) 5. Incubate at 37° C. for 60 min
(§8) 6. Stop the reaction by heating at 70° C. for 10 min
(§9) 7. Purification • Desalt with Zymo column Oligo Clean & Concentrator D4061 (following manufacturer's protocol) to obtain 15 μL aqueous solution and concentrate on speedvac to dry
(§10) 8. Denaturing PAGE (20% urea PAGE, 200V for 90 min) • Preheat 1×TBE buffer at 65° C. • Set up gel in gel tank, flush wells, pre-run 20% urea polyacrylamide gel at 200V for 30 min • Prepare loading sample (dry sample+2.5 μL 1×TBE, 0.5 μL loading buffer), preheat sample at 95° C. for 10 min • Flush each well 3 times to remove urea in wells, load sample, and run for 90 min • Image under UV light without post staining. If post staining is needed, SYBR Gold is used.
(§11) In evaluating the RT-dTTP(s)'s incorporation and termination activities using tailing experiment design, two types of TdTs are used for the evaluation studies: recombinant TdT (rTdT) purchased from Promega and engineered TdT (eTdT).

[2] = biological target: T1, recombinant terminal deoxynucleotidyl transferase (TdT) (Bos taurus, UniProt P06526); assay: Tailing experiment design, screening of RT-dTTPs with rTdT as enzyme; details: 37° C. for 60 min, PAGE, FIG. 6A, FIG. 7
T1 construct: purchased Promega
T1 sequence (P06526 whole entry): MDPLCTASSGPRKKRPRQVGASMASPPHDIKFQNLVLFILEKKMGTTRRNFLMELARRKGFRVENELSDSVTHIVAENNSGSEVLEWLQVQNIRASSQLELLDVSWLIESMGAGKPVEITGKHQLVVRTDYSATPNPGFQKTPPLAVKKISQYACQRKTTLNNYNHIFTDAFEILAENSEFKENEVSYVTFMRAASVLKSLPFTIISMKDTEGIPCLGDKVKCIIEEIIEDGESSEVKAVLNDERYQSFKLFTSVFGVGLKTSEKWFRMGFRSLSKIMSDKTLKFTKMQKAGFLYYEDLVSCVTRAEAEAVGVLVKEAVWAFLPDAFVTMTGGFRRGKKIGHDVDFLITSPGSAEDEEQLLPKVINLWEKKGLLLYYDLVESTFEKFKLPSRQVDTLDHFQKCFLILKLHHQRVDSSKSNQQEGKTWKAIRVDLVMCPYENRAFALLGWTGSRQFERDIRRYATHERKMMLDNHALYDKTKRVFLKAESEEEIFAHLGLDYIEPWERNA
Excerpt: as §1, §2, §3, §4, §5, §6, §7, §8, §9, §10, §11

[3] = tested on: template-independent terminal deoxynucleotidyl transferase (TdT) enzyme; assay: Single base addition to single-stranded nucleotide sequence catalysed by TdT (overall conclusion); details: for termination of further base incorporation: summary of tailing experiments; for incorporation in single stranded oligonucleotide via the catalysis of TdT: summary, recombinant or engineered TdT
Excerpt: A series of screening experiments were designed and conducted to test the recognition of the reversible terminators nucleoside triphosphate reversible terminators designed in accordance with various embodiments disclosed herein by template-independent polymerase and the efficiency of the incorporation of such reversible terminators into the nucleic acid chain. In these experiments, the template-independent polymerase used is recombinant or engineered template-independent terminal deoxynucleotidyl transferase (TdT) enzyme and the initiator used is a single-stranded oligonucleotide sequence.

[4] = biological target: T2, rTdT (Bos taurus, UniProt P06526); assay: Laddering experiment design (dATP / RT-dTTP ratios); details: laddering experiments, FIG. 11; compared with Az-dTTP
T2 construct: purchased Promega
T2 sequence (P06526 whole entry): as above
Experimental: The laddering experiment design is to differentiate the ratio between natural dNTP and RT-dNTP.
as §3
2. Incubate at 37° C. for 60 min
3. Stop the reaction by heating at 70° C. for 10 min
4. Purification • Desalt with Zymo column Oligo Clean & Concentrator D4061 (following manufacturer's protocol) to obtain 15 μL aqueous solution and concentrate on speedvac to dry
as §10, with “5.” for “8.”

[5] = tested on: terminal deoxynucleotidyl transferase (TdT); assay: Evaluation of reversibility of reversible terminators (incorporation, capping, deprotection, elongation); details: elongation by TdT after deprotection of CE or DT
Excerpt: Once RT-dTTP is incorporated to the single-stranded oligonucleotide, the reversible terminator needs to be removed to enable the next base incorporation. […] The reaction will produce a mixture of products which includes the reversibly terminated 21-mer (202a and 202b) and unreacted original 20-mer 202. Then azido-ddGTP 206 will be added to 3′-termini of the unreacted 20-mer 202. As 3′ termini become a dideoxynucleotide 202c, the azido oligonucleotide will not be able to further react with any dTTP via TdT. Then reversibly terminator will be removed in certain conditions, and further incorporated with natural dTTP 208 via TdT.
1. Set Up the Following Reactions
as §4
3. Purification • Desalt with Zymo column Oligo Clean & Concentrator D4061 (following protocol) to obtain 15 μL aqueous solution and concentrate on speedvac to dry
4. Add 85 μL of 30% NH4OH and heat at 80° C. for 1 h
5. Purification • Desalt with Zymo column Oligo Clean & Concentrator D4061 (following protocol) to obtain 15 μL aqueous solution and concentrate on speedvac to dry Elongation of Nucleotide with Natural dATP:
6. Set up the following reactions
7. Incubate at 37° C. for 60 min
8. Stop the reaction by heating at 70° C. for 10 min
9. Purification • Desalt with Zymo column Oligo Clean & Concentrator D4061 (following protocol) to obtain 15 μL aqueous solution and concentrate on speedvac to dry […]

**Q.** `Cc1cn([C@H]2C[C@H](OC(=O)OCCSSC(C)(C)C)[C@@H](COP(=O)(O)OP(=O)(O)OP(=O)(O)O)O2)c(=O)[nH]c1=O` [DT-dTTP, disulfide carbonate (DT)-dTTP] was tested. Which “incorporation into the original FAM-20-mer (21-mer product)” value [1] did it give?
**A.** gave 21-mer products

**Q.** What about the “incorporation into the original FAM-20-mer (21-mer product)” value [2] of the same compound?
**A.** particularly good yield of 21-mer

**Q.** What about the “termination of further base incorporation” value [3] of the same compound?
**A.** terminate further base incorporation

**Q.** What about the “incorporation in single stranded oligonucleotide via the catalysis of TdT” value (“incorporation … of TdT” for short) [3] of the same compound?
**A.** successfully incorporated

**Q.** And the “termination of the reaction” value [4]?
**A.** can terminate the reaction as well as Az-dTTP

**Q.** And the “further incorporation of natural nucleotide after deprotection” value [5]?
**A.** able to incorporate with natural dTTP

**Q.** Which “incorporation yield, eTdT compared with rTdT” value [1] does the source give for `Cc1cn([C@H]2C[C@H](OCCC#N)[C@@H](COP(=O)(O)OP(=O)(O)OP(=O)(O)O)O2)c(=O)[nH]c1=O` [CE-dTTP, 2-cyanoethyl ether (CE)-dTTP] here?
**A.** much high incorporation yield than rTdT

**Q.** And the “termination of the reaction” value [4]?
**A.** can terminate the reaction as well as Az-dTTP

**Q.** And the “further incorporation of natural nucleotide after deprotection” value [5]?
**A.** able to incorporate with natural dTTP

**Q.** What does the source list for `Cc1cn([C@H]2C[C@H](OCOCc3ccc([N+](=O)[O-])cc3)[C@@H](COP(=O)(O)OP(=O)(O)OP(=O)(O)O)O2)c(=O)[nH]c1=O` [PNBA-dTTP, 4-nitrobenzyloxy-methyl (PNBA)-dTTP]?
**A.** incorporation into the original FAM-20-mer (21-mer product) [1]: gave 21-mer products; incorporation into the original FAM-20-mer (21-mer product) [2]: gave 21-mer products; termination of further base incorporation [3]: terminate further base incorporation; incorporation in single stranded oligonucleotide via the catalysis of TdT [3]: successfully incorporated

**Q.** For `Cc1cn(C2CC(OCN=[N+]=[N-])C(COP(=O)(O)OP(=O)(O)OP(=O)(O)O)O2)c(=O)[nH]c1=O` (stereo not shown) [Az-dTTP, reference compound], which “incorporation yield, eTdT compared with rTdT” value [1] is on record?
**A.** much high incorporation yield than rTdT

**Q.** Which “incorporation into the original FAM-20-mer (21-mer product)” value [1] does the source give for `Cc1cn([C@H]2C[C@H](OCOCC[Si](C)(C)C)[C@@H](COP(=O)(O)OP(=O)(O)OP(=O)(O)O)O2)c(=O)[nH]c1=O` [SEM-dTTP, 2-(trimethylsilyl)ethoxymethyl (SEM)-dTTP] here?
**A.** gave 21-mer products

**Q.** What about the “incorporation into the original FAM-20-mer (21-mer product)” value [2] of the same compound?
**A.** gave 21-mer products

**Q.** And the “termination of further base incorporation” value [3]?
**A.** terminate further base incorporation

**Q.** And the “incorporation … of TdT” value [3]?
**A.** successfully incorporated

**Q.** “dithianemethyl acetal (DMA)-dTTP [DMA-dTTP]” was tested. Which “incorporation into the original FAM-20-mer (21-mer product)” value [1] did it give?
**A.** gave 21-mer products

**Q.** And the “incorporation into the original FAM-20-mer (21-mer product)” value [2]?
**A.** gave 21-mer products

**Q.** What about the “termination of further base incorporation” value [3] of the same compound?
**A.** terminate further base incorporation

**Q.** What about the “incorporation … of TdT” value [3] of the same compound?
**A.** successfully incorporated

**Q.** With `C=CCOCO[C@H]1C[C@H](n2cc(C)c(=O)[nH]c2=O)O[C@@H]1COP(=O)(O)OP(=O)(O)OP(=O)(O)O` [AL-dTTP, (allyloxy)methyl (ALM)-dTTP] as the compound, how does the “incorporation into the original FAM-20-mer (21-mer product)” value [1] read?
**A.** gave 21-mer products

**Q.** What about the “termination of further base incorporation” value [3] of the same compound?
**A.** terminate further base incorporation

**Q.** What about the “incorporation … of TdT” value [3] of the same compound?
**A.** successfully incorporated
